According to the SangsterLogP compilation:

assay: method code SF, from DOI: 10.1016/0223-5234(90)90141-o; conditions: pH 7.4

COc1ccc(-c2nc3ccncc3n2C)c(OC)c1 and COc1ccc(-c2nc3cnccc3n2C)c(OC)c1 are within 0.2 log units of each other in logD: 2.68 for the first, 2.66 for the second.

Compared with COc1cc(S(C)=O)ccc1-c1nc2cnncc2[nH]1 (stereo unspecified), COc1cc(S(C)=O)ccc1-c1nc2cnccc2[nH]1 (stereo unspecified) is higher in logD: 0.39 for the first, 1.23 for the second.

First: COc1cc(S(C)=O)ccc1-c1nc2ncncc2[nH]1 (stereo unspecified)
Second: COc1cc(S(C)=O)ccc1-c1nc2nnccc2[nH]1 (stereo unspecified)
The logD of the first is higher: 0.53 for the first, 0.23 for the second.

Going from COc1ccc(-c2nc3cnccc3o2)c(OC)c1 to COc1cc(S(C)=O)ccc1-c1nc2cnccc2s1 (stereo unspecified), the logD falls from 2.42 to 2.21.

First: COc1cccc(OC)c1-c1nc2cnccc2[nH]1
Second: COc1cc(S(C)=O)ccc1-c1nc2cnccc2n1C (stereo unspecified)
The logD of the first is lower: 1.66 for the first, 2.15 for the second.

Work on COc1cc(S(C)=O)ccc1-c1nc2nccnc2[nH]1 (stereo unspecified) yielded a logD of 0.66.
